Measured values as given in patent US12077503B2, “Substituted cyclic amides and their use as herbicides” (FMC CORPORATION, priority 2015, dated 2024).

Columns and labels:
Assay type in all cases: in vivo
[1] = test system: barnyardgrass (Echinochloa crus-galli); experiment: Test B flooded paddy test; settings: Echinochloa crus-galli, 250 g ai/ha, Flood; 0 to 100 scale where 0 is no effect and 100 is complete control; read-out: Barnyardgrass plant response rating
Outline: (§1)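 Flooding to 3 cm over soil accompanied treatment, which consisted of adding compound to the standing water around 2-leaf plants; depth was then maintained. Visual assessment versus controls followed at 13 to 15 d (scale 0–100, 0 meaning no effect).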

[2] = test system: rice (Oryra sativa); experiment: Test B flooded paddy test; settings: Oryza sativa, 250 g ai/ha, Flood; 0 to 100 scale where 0 is no effect and 100 is complete control; read-out: Rice plant response rating
Outline: as §1

[3] = test system: sedge, umbrella (small-flower umbrella sedge, Cyperus difformis); experiment: Test B flooded paddy test; settings: Cyperus difformis, 250 g ai/ha, Flood; 0 to 100 scale where 0 is no effect and 100 is complete control; read-out: Sedge, Umbrella plant response rating
Outline: as §1

[4] = test system: ducksalad (Heteranthera limosa); experiment: Test B flooded paddy test; settings: Heteranthera limosa, 250 g ai/ha, Flood; 0 to 100 scale where 0 is no effect and 100 is complete control; read-out: Ducksalad plant response rating
Outline: as §1

[5] = test system: barnyardgrass (Echinochloa crus-galli); experiment: Test A preemergence; settings: Echinochloa crus-galli, pre-emergence, 240 h, 0 to 100 scale where 0 is no effect and 100 is complete control, read-out: Barnyardgrass plant response rating
Outline: (§2)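 Compounds were formulated in a non-phytotoxic solvent mixture with surfactant and applied as a preemergence directed soil spray after seeding, or sprayed postemergence over plants 2 to 10 cm tall at the one- to two-leaf stage. Evaluation after about 10 d compared treated with untreated controls, using a scale from 0 (no effect) to 100 (complete control).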

[6] = test system: pigweed (Amaranthus retroflexus); experiment: Test A preemergence; settings: Amaranthus retroflexus, pre-emergence, 240 h, 0 to 100 scale where 0 is no effect and 100 is complete control, read-out: Pigweed plant response rating
[7] = test system: ryegrass, Italian (Italian ryegrass, Lolium multiflorum); experiment: Test A preemergence; settings: Lolium multiflorum, pre-emergence, 240 h, 0 to 100 scale where 0 is no effect and 100 is complete control, read-out: Ryegrass, Italian plant response rating
Outline: as §2

[8] = test system: Kochia (Kochia scoparia); experiment: Test A preemergence; settings: Bassia scoparia, pre-emergence, 240 h, 0 to 100 scale where 0 is no effect and 100 is complete control, read-out: Kochia plant response rating
Outline: as §2

[9] = test system: ragweed (common ragweed, Ambrosia elatior); experiment: Test A preemergence; settings: Ambrosia artemisiifolia, pre-emergence, 240 h, 0 to 100 scale where 0 is no effect and 100 is complete control, read-out: Ragweed plant response rating
Outline: as §2

[10] = test system: giant foxtail (Setaria faberii); experiment: Test A preemergence; settings: Setaria faberi, pre-emergence, 240 h, 0 to 100 scale where 0 is no effect and 100 is complete control, read-out: Foxtail, Giant plant response rating
Outline: as §2

[11] = test system: Galium (catchweed bedstraw, Galium aparine); experiment: Test A postemergence; settings: Galium, post-emergence, 240 h
Outline: as §2

[12] = test system: barnyardgrass (Echinochloa crus-galli); experiment: Test A postemergence; settings: Echinochloa crus-galli, post-emergence, 240 h
Outline: as §2

[13] = test system: pigweed (Amaranthus retroflexus); experiment: Test A postemergence; settings: Amaranthus retroflexus, post-emergence, 240 h, 125 g ai/ha, postemergence, visual injury vs untreated controls after approx. 10 d; 0 = no effect, 100 = complete control; read-out: Pigweed plant response rating (0 to 100 scale)
Outline: as §2

[14] = test system: corn (Zea mays); experiment: Test A postemergence; settings: Zea mays, post-emergence, 240 h
Outline: as §2

[15] = test system: ryegrass, Italian (Italian ryegrass, Lolium multiflorum); experiment: Test A postemergence; settings: Lolium multiflorum, post-emergence, 240 h, 125 g ai/ha, postemergence, visual injury vs untreated controls after approx. 10 d; 0 = no effect, 100 = complete control; read-out: Ryegrass, Italian plant response rating (0 to 100 scale)
Outline: as §2

[16] = test system: blackgrass (Alopecurus myosuroides); experiment: Test A postemergence; settings: Alopecurus myosuroides, post-emergence, 240 h
Outline: as §2

[17] = test system: Kochia (Kochia scoparia); experiment: Test A postemergence; settings: Bassia scoparia, post-emergence, 240 h
Outline: as §2

[18] = test system: ragweed (common ragweed, Ambrosia elatior); experiment: Test A postemergence; settings: Ambrosia artemisiifolia, post-emergence, 240 h, 125 g ai/ha, postemergence, visual injury vs untreated controls after approx. 10 d; 0 = no effect, 100 = complete control; read-out: Ragweed plant response rating (0 to 100 scale)
Outline: as §2

[19] = test system: giant foxtail (Setaria faberii); experiment: Test A postemergence; settings: Setaria faberi, post-emergence, 240 h
Outline: as §2

[20] = test system: wheat (Triticum aestivum); experiment: Test A postemergence; settings: Triticum aestivum, post-emergence, 240 h, 125 g ai/ha, postemergence, visual injury vs untreated controls after approx. 10 d; 0 = no effect, 100 = complete control; read-out: Wheat plant response rating (0 to 100 scale)
Outline: as §2

[21] = 125 g ai/ha, preemergence, approx. 10 d

Structure (SMILES): CN1CC[C@H](c2ccc3c(c2)OC(F)(F)O3)[C@@H](C(=O)Nc2cccc(Cl)c2F)C1=O [Compound 1174]
- pest or weed control at 250 g/ha [1]: 70%
- pest or weed control at 250 g/ha [2]: 20%
- pest or weed control at 250 g/ha [3]: 0%
- pest or weed control at 250 g/ha [4]: 90%
- pest or weed control at 31 g/ha ([5]; 31 g ai/ha, Preemergence): 80%
- pest or weed control at 125 g/ha [5, 21]: 100%
- pest or weed control at 31 g/ha ([6]; 31 g ai/ha, Preemergence): 0%
- pest or weed control at 125 g/ha [6, 21]: 0%
- pest or weed control at 31 g/ha ([7]; 31 g ai/ha, Preemergence): 0%
- pest or weed control at 125 g/ha [7, 21]: 40%
- pest or weed control at 31 g/ha ([8]; 31 g ai/ha, Preemergence): 0%
- pest or weed control at 125 g/ha [8, 21]: 0%
- pest or weed control at 31 g/ha ([9]; 31 g ai/ha, Preemergence): 0%
- pest or weed control at 125 g/ha [9, 21]: 0%
- pest or weed control at 31 g/ha ([10]; 31 g ai/ha, Preemergence): 80%
- pest or weed control at 125 g/ha [10, 21]: 90%
- pest or weed control at 125 g/ha ([11]; 125 g ai/ha, postemergence, visual injury vs untreated controls after approx. 10 d, 0 = no effect, 100 = complete control, read-out: Galium plant response rating (0 to 100 scale)): 0%
- pest or weed control at 31 g/ha ([11]; Postemergence, 31 g ai/ha, visual injury after approx. 10 d, 0 to 100 scale, 0 no effect, 100 complete control, read-out: Plant response rating, Galium): 0%
- pest or weed control at 125 g/ha ([12]; 125 g ai/ha, postemergence, visual injury vs untreated controls after approx. 10 d, 0 = no effect, 100 = complete control, read-out: Barnyardgrass plant response rating (0 to 100 scale)): 70%
- pest or weed control at 31 g/ha ([12]; Postemergence, 31 g ai/ha, visual injury after approx. 10 d, 0 to 100 scale, 0 no effect, 100 complete control, read-out: Plant response rating, Barnyardgrass): 70%
- pest or weed control at 125 g/ha [13]: 0%
- plant injury at 125 g/ha ([14]; 125 g ai/ha, postemergence, visual injury vs untreated controls after approx. 10 d, 0 = no effect, 100 = complete control, read-out: Corn plant response rating (0 to 100 scale)): 50%
- Corn plant response rating (crop injury, 0 = no effect, 100 = complete kill) at 31 g/ha ([14]; Postemergence, 31 g ai/ha, visual injury after approx. 10 d, 0 to 100 scale, 0 no effect, 100 complete control): 0%
- pest or weed control at 125 g/ha [15]: 0%
- pest or weed control at 125 g/ha ([16]; 125 g ai/ha, postemergence, visual injury vs untreated controls after approx. 10 d, 0 = no effect, 100 = complete control, read-out: Blackgrass plant response rating (0 to 100 scale)): 0%
- pest or weed control at 31 g/ha ([16]; Postemergence, 31 g ai/ha, visual injury after approx. 10 d, 0 to 100 scale, 0 no effect, 100 complete control, read-out: Plant response rating, Blackgrass): 0%
- pest or weed control at 125 g/ha ([17]; 125 g ai/ha, postemergence, visual injury vs untreated controls after approx. 10 d, 0 = no effect, 100 = complete control, read-out: Kochia plant response rating (0 to 100 scale)): 0%
- pest or weed control at 31 g/ha ([17]; Postemergence, 31 g ai/ha, visual injury after approx. 10 d, 0 to 100 scale, 0 no effect, 100 complete control, read-out: Plant response rating, Kochia): 0%
- pest or weed control at 125 g/ha [18]: 0%
- pest or weed control at 125 g/ha ([19]; 125 g ai/ha, postemergence, visual injury vs untreated controls after approx. 10 d, 0 = no effect, 100 = complete control, read-out: Foxtail, Giant plant response rating (0 to 100 scale)): 80%
- pest or weed control at 31 g/ha ([19]; Postemergence, 31 g ai/ha, visual injury after approx. 10 d, 0 to 100 scale, 0 no effect, 100 complete control, read-out: Plant response rating, Foxtail, Giant): 40%
- plant injury at 125 g/ha [20]: 30%
